Assay results from publication PMC11885506, “Evaluation of a non-animal toolbox informed by adverse outcome pathways for human inhalation safety” (Frontiers in Toxicology, 2025).
Entries after “also recorded” stand apart in the source; their conditions may differ. Read-outs that look alike come from different tables or passages of the source.

Legend:
MucilAir™-HF tissues [1] = test: Mucin-5AC (Muc5AC) immunohistochemistry, goblet cells, MucilAir-HF model; assay type: cell-based, human; details: for % of Muc5AC area: average ± standard deviation
Procedure: (§1) Tissues were handled as recommended by manufacturer’s instruction.
The presence of goblet cells was assessed through immunohistochemistry analysis for mucin-5AC protein (Muc5AC) detection. IL-13 and cytomix were used as positive controls (see item 2.5.2 for additional details). On last day of experiment (day 12), cultures (n = 3 tissues/group) were rinsed in PBS and fixed by immersion in 4% formaldehyde for 20 min. Fixed tissues were embedded into paraffin, sectioned, and processed for staining on paraffin sections. The immunostaining of the sections was performed with the Benchmark automated platform (Ventana-Roche, Hoffmann-La Roche Ltd, Basel, Switzerland) and the Autostainer Link 48 (Agilent, Santa Clara, CA. United States) with the detection kit Ultraview DAB (DAB chromogeny, Hoffmann-La Roche Ltd). Sections were pre-treated using heat mediated antigen retrieval with sodium citrate buffer, pH 6, for 20 min. The section was then incubated with recombinant anti-mucin 5AC antibody (ab3649, Abcam) for 1 h at room temperature, followed by biotinylated secondary antibody (Dako) and HRP detection (HRP conjugated ABC system, Vector Laboratories), according to manufacturer’s instruction. The section was then counterstained with hematoxylin (Sigma-Aldrich) and mounted with DPX, a synthetic non-aqueous mounting medium for microscopy. Digital images of the slides were then acquired, and quantitative image analysis performed using Image Pro Plus 6.2 (Media Cybernetics) to quantify the goblet cells on a section. The whole images of stained sections were scanned, and an average 15 images/section were analysed. The results are the ratio between the mucin 5AC stained area and the total surface area of the epithelium on the section.

[2] = tested on: RLE-6TN rat lung epithelial cells; details: 0.5 µM; ref Jiao et al., 2017; cited from earlier work
[3] = tested on: monocyte-derived macrophages (MDMs); details: 20 µM; ref Zeng et al., 2021; cited from earlier work
MucilAir™-HF tissues [4] = test: Cytokine and chemokine measurements (Luminex), MucilAir-HF model; assay type: cell-based, human; details: MucilAir-HF
Procedure: as §1
Basolateral medium samples of the tissue cultures were collected and stored at −80°C until analysis. The following cytokines/chemokines were quantified using customized Human Luminex® Discovery Assay kits (R&D Systems): chemokine (C-C motif) ligand (CCL) 2, CCL7, CCL26, C-X-C motif chemokine ligand (CXCL) 10, CXCL11, intercellular adhesion molecule-1 (ICAM-1), IL-1α, IL-6, IL-8, matrix metalloproteinase (MMP)-1, MMP-2, MMP-3, MMP-7, MMP-9, osteopontin, interferon (IFN)-γ, IL-1 receptor antagonist (IL-1Ra), urokinase-type plasminogen activator receptor (uPAR), tumour necrosis factor (TNF)-α, urokinase (uPA), serpin E1, tissue inhibitor of metalloproteinase 1 (TIMP-1), and TGF-β1. Samples were measured in technical triplicates according to the manufacturer’s recommendation using a Luminex Bio-Plex® 200 RUO System ([…]).

[5] = tested on: cultured alveolar macrophages and epithelial cells; set-up: method as in JOUNEAU et al., 2011; details: 10 µg/mL for 48h, bacteria strain not specified; ref JOUNEAU et al., 2011; cited from earlier work
[6] = tested on: primary human bronchial epithelial cells; set-up: method as in Wu et al., 2010; details: 1 μg/mL for 24h, bacteria strain not specified; ref Wu et al., 2010; cited from earlier work
EpiAlveolar™ tissues = test: Histology and immunohistochemistry, EpiAlveolar model, Laboratory 2; details: Laboratory 2, 12-day period
Procedure: To evaluate the quality of EpiAlveolar™ tissues over the 12-day experimental period, histological and immunohistochemistry assessments for detection of pan-cytokeratin, vimentin, aquaporin 5, pro-surfactant C, CD68, caspase-3, and/or αSMA were performed by Laboratories 1 and 2.
Tissues were kept in 10% phosphate buffered formalin at 4°C for up to 48 h. Samples were then fixed in 70% ethanol and two strips of membrane were trimmed from each sample, processed, and paraffin-embedded to be cut at 5 µm thick sections and mounted to glass slides. The slides were then dewaxed in xylene, hydrated using graded industrial methylated spirit (70-100%) and stained with H&E for light microscope analysis.
For immunohistochemistry analysis, tissue sections-containing microscope slides were obtained and processed using a Discovery Ultra Staining System (Roche), according to manufacturer’s instructions, except for anti-CD68 staining that was manually performed. The slides were incubated at 60°C for 8 min and then deparaffinized at 69°C for 24 min. After that, slides were incubated with inhibitor CM or peroxidase blocking solution (for anti-CD68 staining) for 8 min at room temperature. The slides were then incubated at room temperature with the following primary monoclonal antibodies, following manufacturer’s instructions: anti-α smooth muscle actin (αSMA) at 1:500 (Leica Microsystems Ltd), anti-CD68 at 1:3000 for macrophages (11192-T24, Sino Biological), anti-pro-surfactant C protein at 1:1000 (AB3786, Sigma-Aldrich), anti-caspase-3 at 1:10000 (AB4051, Abcam), anti-aquaporin 5 (31661, Invitrogen), anti-pan-cytokeratin for epithelial cells (760-2595, Roche), and anti-vimentin for mesenchymal cells (790-2917, Roche). […]
A board-certified pathologist evaluated the changes (epithelial thinning, separation/detachment areas, necrosis, collagen, and presence of apoptotic cells, myofibroblasts, and type II pneumocytes) using a semi-quantitative scoring system (Table 2).

[7] = tested on: A549 human lung adenocarcinoma cell line; details: 0.1-5 µM for 3h; ref Guo et al., 2012; cited from earlier work
[8] = tested on: EpiAirway-100 human upper respiratory tract epithelium model; details: 25-125 mM for 24h; ref Balharry et al., 2008; cited from earlier work
[9] = tested on: HBE16 airway epithelial cells; details: 20 μM for 12h; ref Li et al., 2010; cited from earlier work
[10] = tested on: airway epithelial cell lines; set-up: method as in Nilsson et al., 2010; details: 40 µM for 60 min, corrected and normal cell lines; ref Nilsson et al., 2010; cited from earlier work
[11] = tested on: cystic fibrosis phenotype cells; set-up: method as in Perez et al., 2007; details: 20 µM for 3-5 days; ref Perez et al., 2007; cited from earlier work
[12] = tested on: primary human nasal epithelial cells; set-up: method as in Uchenna Agu et al., 1999; details: ref Uchenna Agu et al., 1999, cited from earlier work
MucilAir™-HF tissues [13] = test: Cilia beating frequency (CBF) analysis, MucilAir-HF model
Procedure: The MucilAir™-HF system (EP11MD) and ready-to-use chemically-defined, serum-free culture medium (EP04AM) were obtained from Epithelix Sàrl (Geneva, Switzerland). Tissues were handled as recommended by manufacturer’s instruction. […] After differentiation for 42 up to 81 days at the air-liquid interface (ALI) under standard culture conditions (37°C ± 1°C in a humidified atmosphere of 5% ± 1% CO2 in air), tissues were washed 3 days before first exposure and each insert was inspected for beating cilia and mucus production. This washing step (one or twice with PBS) were performed to remove accumulated mucus and cell debris to minimize the risk of interference with the toxicity tests. Over 12-day experimental period, washing steps as well as media changes was performed every 2-3 days.
For toxicity testing performed over a 12-day experimental period, tissues were daily exposed to 3 different concentrations of each test material for 30 min or 6 h (for detailed information on each material see Table 1). […] Tissues were exposed by test materials via nebulization, liquid apical application, or liquid basal application. These differences in the exposure type were due to solubility of the test material, route of exposure (inhaled or systemic), or comparison with previous publications. […]

[14] = 30 min/day exposure, day 12, High 1 concentration (third of the tested concentrations)
[15] = 30 min/day exposure, day 12, Low concentration (first of the tested concentrations)
[16] = 30 min/day exposure, day 12, Medium concentration (second of the tested concentrations)
[17] = 6 h/day exposure, day 12, single tested concentration

| Compound | % of Muc5AC area (MucilAir™-HF tissues [1]; [14]) [%] | % of Muc5AC area (MucilAir™-HF tissues [1]; [15]) [%] | % of Muc5AC area (MucilAir™-HF tissues [1]; [16]) [%] | % of Muc5AC area (MucilAir™-HF tissues [1]; [17]) [%] | other results |
| --- | --- | --- | --- | --- | --- |
| C[S+]([O-])CCCCN=C=S (stereo not drawn) [Sulforaphane, R,S-Sulforaphane] | 5.04 ± 0.71 | 3.74 ± 0.71 | 9.38 ± 0.80 | 2.55 ± 0.62 | Protection from cigarette smoke extract-induced oxidative damage [2]: protect from cigarette smoke extract-induced oxidative damage; Anti-inflammatory activity [3]: anti-inflammatory activity by suppressing the expression of Toll-like receptors (TLR2 and TLR4) |
| Lipopolysaccharide from Pseudomonas aeruginosa 10 [LPS] | 4.28 ± 0.76 | 2.87 ± 0.77 | 4.30 ± 0.90 | 1.58 ± 0.40 | Cytokines/chemokines modulated (in words) (MucilAir™-HF tissues [4]; 30 min/day exposure): did not promote modulation of the different cytokines/chemokines; Cytokines/chemokines modulated (in words) (MucilAir™-HF tissues [4]; 6 h/day exposure): increased levels of proteins involved in the inflammatory response (e.g., IL-6, IL-8, and TNF-α) and degradation of extracellular matrix/fibrosis (e.g., MMP-3 and uPAR); MMP-9 supernatant levels and mRNA transcripts [5]: significant increase in MMP-9 supernatant levels and mRNA transcripts; IL-6 and IL-8 protein and mRNA transcripts levels [6]: significant increase of IL-6 and IL-8 protein and mRNA transcripts levels; Histological changes compared to vehicle and control groups (in words) (EpiAlveolar™ tissues): changes were not observed |
| CN1CCC[C@H]1c1cccnc1 [Nicotine] | 5.94 ± 1.90 | 0.89 ± 0.62 | 3.91 ±0.79 |  | Cytotoxicity (LDH release) [7]: did not trigger cytotoxicity; TEER values (integrity of the epithelial membrane) [8]: biphasic response with a large and significant increase of TEER values at low concentrations followed by a steady decrease at higher concentrations; TNF-α, IL-8, IL-6 and MUC5AC supernatant protein and mRNA levels [9]: did not trigger changes in TNF-α, IL-8, IL-6 and MUC5AC supernatant protein and mRNA levels |
| O=C(O)c1ccc(/C=C2\SC(=S)N(c3cccc(C(F)(F)F)c3)C2=O)cc1 [CFTRinh-172] | 6.93 ± 0.51 | 7.15 ± 1.06 | 11.01 ± 0.81 |  | Changes in Muc5AC protein expression (in words) (MucilAir™-HF tissues [1]): not able to promote any changes; also recorded: did not induce expected increase in mucin secretion or Muc5AC protein expression; TEER values [10]: time-dependent increase in TEER values; GM-CSF, IL-6 and/or IL-8 secretion levels [11]: no changes in granulocyte/macrophage colony-stimulating factor, IL-6 and/or IL-8 secretion levels |
| Cc1cc(O)ccc1Cl [Chlorocresol, 4-Chloro-3-methylphenol] | 6.95 ± 0.30 | 14.47 ± 0.87 | 8.85 ± 1.77 |  | CBF ([12]; 0.005% w/ v for 1-20 min): reversible cilio-inhibitory effects by significantly decreasing CBF; CBF ([12]; 0.1% w/v): instantaneous and irreversible ciliostasis; Tissue functionality (CBF, MCC, mucin secretion) change (in words) (MucilAir™-HF tissues [13]): not able to induce changes in tissue functionality (e.g. reduced CBF) |
